Data as given in US11896602B2, “Method for preventing pregnancy” (ESTETRA SRL, priority 2016, dated 2024).

Assays:
[1] = tested on: healthy female subjects; assay: Example 1 clinical study, one 28-day cycle: dysmenorrhea as treatment-emergent adverse event; type: in vivo, human
Procedure: During that study, healthy female subjects were treated for one 28-day cycle with either 10 or 20 mg E4 alone (n=10 and 11, respectively) or with a combination of E4 with either Progesterone (P) or Desogestrel (DSG) (n=15 or 16, respectively).
At baseline, occasional dysmenorrhea was reported by 11 subjects (21.2%), and frequent dysmenorrhea was reported by 19 subjects (36.5%). Overall, dysmenorrhea was reported by 25% to 53.3% of the subjects included in this trial.
As shown in Table 3 of Treatment-emergent adverse events (TE-AE) below, reporting of dysmenorrhea during the treatment phase was low in comparison to the incidence recorded at baseline.

[2] = Terminal half-life; settings: in vivo
[3] = Triglycerides levels on daily estrogen use; type: in vivo, human; settings: even at higher dosages
Text: Besides, the daily use of currently marketed estrogens (ethinylestradiol (EE), E2, E2V, conjugated equine estrogens) is associated with a dose-proportional increase in triglycerides levels. In the human body, high levels of triglycerides in the bloodstream have been linked to atherosclerosis and, by extension, the risk of heart disease and stroke.

[4] = 10 mg E4, n = 10, one 28-day cycle
[5] = 20 mg E4 alone (n = 11), with DSG (n = 15) or with P4 (n = 16), one 28-day cycle

terminal half-life [2]: 31.7 h
triglycerides levels [3]: minimally increases triglycerides levels
SMILES: C[C@]12CC[C@@H]3c4ccc(O)cc4CC[C@H]3[C@@H]1[C@@H](O)[C@@H](O)[C@@H]2O [E4, estetrol]
Dysmenorrhea TE-AE, % of subjects [1, 4]: 10.0%
Dysmenorrhea TE-AE, number of subjects [1, 4]: 1
Dysmenorrhea TE-AE, % of subjects [1, 5]: 9.1%
Dysmenorrhea TE-AE, number of subjects [1, 5]: 1
